# Key:
# [1] = Light sensitivity study of solid plinabulin; assay type: physicochemical
# Source text: Table 8 illustrates the stability of solid plinabulin in a light sensitivity study.
# [2] = Stress test of solid plinabulin, 30 days light storage vs dark control; assay type: physicochemical
# Source text: This comparative example reports a plinabulin stress test of solid plinabulin showing relative stability to light storage for 30 days. […]
# [3] = solid, minimum of 1.2 million LUX hours and 200 watts/square meter
compound,measurement,setting,value
"CC(C)(C)c1[nH]cnc1/C=c1\[nH]c(=O)/c(=C/c2ccccc2)[nH]c1=O [Plinabulin, (3Z,6Z)-3-Benzylidene-6-{[5-(2-methyl-2-propanyl)-1H-imidazol-4-yl]methylene}-2,5-piperazinedione]",Light sensitivity,[1]; solid plinabulin,not light sensitive
same,Appearance,"[1]; solid, Dark Control",Yellow Solid.
same,HPLC (% AUC) at 214 nm,"[1]; solid, Dark Control",99.3% AUC
same,HPLC (% AUC) at 250 nm,"[1]; solid, Dark Control",99.5% AUC
same,HPLC (% AUC) at 370 nm,"[1]; solid, Dark Control",99.4% AUC
same,"Impurity at 214 nm, rrt 0.86","[1]; solid, Dark Control",0.21% @rrt 0.86
same,"Impurity at 214 nm, rrt 0.97","[1]; solid, Dark Control",0.33% @rrt 0.97
same,"Impurity at 214 nm, rrt 1.17","[1]; solid, Dark Control",0.06% @rrt 1.17
same,"Impurity at 214 nm, rrt 1.27","[1]; solid, Dark Control",0.04% @rrt 1.27
same,KF,"[1]; solid, Dark Control",5.1%
same,Single impurity >1% AUC at 214 nm,"[1]; solid, Dark Control",No single impurity
same,Appearance,"[1]; solid, Time 0",Yellow Solid.
same,HPLC (% AUC) at 214 nm,"[1]; solid, Time 0",99.2% AUC
same,HPLC (% AUC) at 250 nm,"[1]; solid, Time 0",99.4% AUC
same,HPLC (% AUC) at 370 nm,"[1]; solid, Time 0",99.4% AUC
same,"Impurity at 214 nm, rrt 0.86","[1]; solid, Time 0",0.21% @rrt 0.86
same,"Impurity at 214 nm, rrt 0.96","[1]; solid, Time 0",0.36% @rrt 0.96
same,"Impurity at 214 nm, rrt 1.14","[1]; solid, Time 0",0.06% @rrt 1.14
same,"Impurity at 214 nm, rrt 1.18","[1]; solid, Time 0",0.05% @rrt 1.18
same,"Impurity at 214 nm, rrt 1.19","[1]; solid, Time 0",0.02% @rrt 1.19
same,"Impurity at 214 nm, rrt 1.28","[1]; solid, Time 0",0.02% @rrt 1.28
same,KF,"[1]; solid, Time 0",5.1%
same,Single impurity >1% AUC at 214 nm,"[1]; solid, Time 0",No single impurity
same,Appearance,[1]; [3],Yellow Solid.
same,HPLC (% AUC) at 214 nm,[1]; [3],99.4% AUC
same,HPLC (% AUC) at 250 nm,[1]; [3],99.4% AUC
same,HPLC (% AUC) at 370 nm,[1]; [3],99.5% AUC
same,"Impurity at 214 nm, rrt 0.40",[1]; [3],0.02% @rrt 0.40
same,"Impurity at 214 nm, rrt 0.49",[1]; [3],0.05% @rrt 0.49
same,"Impurity at 214 nm, rrt 0.68",[1]; [3],0.02% @rrt 0.68
same,"Impurity at 214 nm, rrt 0.86",[1]; [3],0.08% @rrt 0.86
same,"Impurity at 214 nm, rrt 0.97",[1]; [3],0.29% @rrt 0.97
same,"Impurity at 214 nm, rrt 1.17",[1]; [3],0.05% @rrt 1.17
same,"Impurity at 214 nm, rrt 1.27",[1]; [3],0.02% @rrt 1.27
same,KF,[1]; [3],5.0%
same,Single impurity >1% AUC at 214 nm,[1]; [3],No single impurity
same,Alcohol Impurity by HPLC,"[2]; Control Sample (dark), 0 days",0.02%
same,Amide Impurity by HPLC,"[2]; Control Sample (dark), 0 days",0.02%
same,Appearance,"[2]; Control Sample (dark), 0 days",Yellow
same,Assay by HPLC,"[2]; Control Sample (dark), 0 days",98.9% w/w
same,Cyano Impurity by HPLC,"[2]; Control Sample (dark), 0 days",0.1%
same,De-Carboxylate Impurity by HPLC,"[2]; Control Sample (dark), 0 days",0.1%
same,Ether Impurity by HPLC,"[2]; Control Sample (dark), 0 days",0.02%
same,Impurity-489-1 by HPLC,"[2]; Control Sample (dark), 0 days",0.1%
same,Impurity-489-2 by HPLC,"[2]; Control Sample (dark), 0 days",0.1%
same,Other Unspecified Impurity by HPLC,"[2]; Control Sample (dark), 0 days",0.02%
same,Total Impurities by HPLC,"[2]; Control Sample (dark), 0 days",0.3%
same,Water,"[2]; Control Sample (dark), 0 days",0.1%
same,Alcohol Impurity by HPLC,"[2]; Control Sample (dark), 5 days",0.02%
same,Amide Impurity by HPLC,"[2]; Control Sample (dark), 5 days",0.02%
same,Appearance,"[2]; Control Sample (dark), 5 days",Yellow
same,Assay by HPLC,"[2]; Control Sample (dark), 5 days",98.42% w/w
same,Cyano Impurity by HPLC,"[2]; Control Sample (dark), 5 days",0.11%
same,De-Carboxylate Impurity by HPLC,"[2]; Control Sample (dark), 5 days",0.09%
same,Ether Impurity by HPLC,"[2]; Control Sample (dark), 5 days",0.02%
same,Impurity-489-1 by HPLC,"[2]; Control Sample (dark), 5 days",0.16%
same,Impurity-489-2 by HPLC,"[2]; Control Sample (dark), 5 days",0.02%
same,Other Unspecified Impurity by HPLC,"[2]; Control Sample (dark), 5 days",0.02%
same,Total Impurities by HPLC,"[2]; Control Sample (dark), 5 days",0.36%
same,Water,"[2]; Control Sample (dark), 5 days",0.05%
same,Alcohol Impurity by HPLC,"[2]; Control Sample (dark), 10 days",0.02%
same,Amide Impurity by HPLC,"[2]; Control Sample (dark), 10 days",0.02%
same,Appearance,"[2]; Control Sample (dark), 10 days",Yellow
same,Assay by HPLC,"[2]; Control Sample (dark), 10 days",99.33% w/w
same,Cyano Impurity by HPLC,"[2]; Control Sample (dark), 10 days",0.12%
same,De-Carboxylate Impurity by HPLC,"[2]; Control Sample (dark), 10 days",0.09%
same,Ether Impurity by HPLC,"[2]; Control Sample (dark), 10 days",0.02%
same,Impurity-489-1 by HPLC,"[2]; Control Sample (dark), 10 days",0.12%
same,Impurity-489-2 by HPLC,"[2]; Control Sample (dark), 10 days",0.02%
same,Other Unspecified Impurity by HPLC,"[2]; Control Sample (dark), 10 days",0.02%
same,Total Impurities by HPLC,"[2]; Control Sample (dark), 10 days",0.32%
same,Water,"[2]; Control Sample (dark), 10 days",0.05%
same,Alcohol Impurity by HPLC,"[2]; Control Sample (dark), 30 days",0.02%
same,Amide Impurity by HPLC,"[2]; Control Sample (dark), 30 days",0.02%
same,Appearance,"[2]; Control Sample (dark), 30 days",Yellow
same,Assay by HPLC,"[2]; Control Sample (dark), 30 days",99.29% w/w
same,Cyano Impurity by HPLC,"[2]; Control Sample (dark), 30 days",0.11%
same,De-Carboxylate Impurity by HPLC,"[2]; Control Sample (dark), 30 days",0.09%
same,Ether Impurity by HPLC,"[2]; Control Sample (dark), 30 days",0.02%
same,Impurity-489-1 by HPLC,"[2]; Control Sample (dark), 30 days",0.15%
same,Impurity-489-2 by HPLC,"[2]; Control Sample (dark), 30 days",0.02%
same,Other Unspecified Impurity by HPLC,"[2]; Control Sample (dark), 30 days",0.05%
same,Total Impurities by HPLC,"[2]; Control Sample (dark), 30 days",0.36%
same,Water,"[2]; Control Sample (dark), 30 days",0.05%
same,Alcohol Impurity by HPLC,"[2]; Photo Sample, 0 days",0.02%
same,Amide Impurity by HPLC,"[2]; Photo Sample, 0 days",0.02%
same,Assay by HPLC,"[2]; Photo Sample, 0 days",98.9% w/w
same,Cyano Impurity by HPLC,"[2]; Photo Sample, 0 days",0.1%
same,De-Carboxylate Impurity by HPLC,"[2]; Photo Sample, 0 days",0.1%
same,Ether Impurity by HPLC,"[2]; Photo Sample, 0 days",0.02%
same,Impurity-489-1 by HPLC,"[2]; Photo Sample, 0 days",0.1%
same,Impurity-489-2 by HPLC,"[2]; Photo Sample, 0 days",0.1%
same,Other Unspecified Impurity by HPLC,"[2]; Photo Sample, 0 days",0.02%
same,Total Impurities by HPLC,"[2]; Photo Sample, 0 days",0.3%
same,Water,"[2]; Photo Sample, 0 days",0.1%
same,Alcohol Impurity by HPLC,"[2]; Photo Sample, 5 days",0.02%
same,Amide Impurity by HPLC,"[2]; Photo Sample, 5 days",0.02%
same,Assay by HPLC,"[2]; Photo Sample, 5 days",99.37% w/w
same,Cyano Impurity by HPLC,"[2]; Photo Sample, 5 days",0.11%
same,De-Carboxylate Impurity by HPLC,"[2]; Photo Sample, 5 days",0.09%
same,Ether Impurity by HPLC,"[2]; Photo Sample, 5 days",0.02%
same,Impurity-489-1 by HPLC,"[2]; Photo Sample, 5 days",0.10%
same,Impurity-489-2 by HPLC,"[2]; Photo Sample, 5 days",0.05%
same,Other Unspecified Impurity by HPLC,"[2]; Photo Sample, 5 days",0.02%
same,Total Impurities by HPLC,"[2]; Photo Sample, 5 days",0.3%
same,Water,"[2]; Photo Sample, 5 days",0.05%
same,Alcohol Impurity by HPLC,"[2]; Photo Sample, 10 days",0.02%
same,Amide Impurity by HPLC,"[2]; Photo Sample, 10 days",0.02%
same,Assay by HPLC,"[2]; Photo Sample, 10 days",99.36% w/w
same,Cyano Impurity by HPLC,"[2]; Photo Sample, 10 days",0.12%
same,De-Carboxylate Impurity by HPLC,"[2]; Photo Sample, 10 days",0.08%
same,Ether Impurity by HPLC,"[2]; Photo Sample, 10 days",0.02%
same,Impurity-489-1 by HPLC,"[2]; Photo Sample, 10 days",0.07%
same,Impurity-489-2 by HPLC,"[2]; Photo Sample, 10 days",0.05%
same,Other Unspecified Impurity by HPLC,"[2]; Photo Sample, 10 days",0.02%
same,Total Impurities by HPLC,"[2]; Photo Sample, 10 days",0.27%
same,Water,"[2]; Photo Sample, 10 days",0.05%
same,Alcohol Impurity by HPLC,"[2]; Photo Sample, 30 days",0.02%
same,Amide Impurity by HPLC,"[2]; Photo Sample, 30 days",0.02%
same,Assay by HPLC,"[2]; Photo Sample, 30 days",99.17% w/w
same,Cyano Impurity by HPLC,"[2]; Photo Sample, 30 days",0.11%
same,De-Carboxylate Impurity by HPLC,"[2]; Photo Sample, 30 days",0.09%
same,Ether Impurity by HPLC,"[2]; Photo Sample, 30 days",0.02%
same,Impurity-489-1 by HPLC,"[2]; Photo Sample, 30 days",0.06%
same,Impurity-489-2 by HPLC,"[2]; Photo Sample, 30 days",0.05%
same,Other Unspecified Impurity by HPLC,"[2]; Photo Sample, 30 days",0.1%
same,Total Impurities by HPLC,"[2]; Photo Sample, 30 days",0.6%
same,Water,"[2]; Photo Sample, 30 days",0.05%
